US7964629B2, “Inhibitors of isoprenylcysteine carboxyl methyltransferase” (Duke Universtiy, priority 2005, dated 2011)
Where two headings read alike, the source gives them in different places.

What was measured:
[1] = target: T1, recombinant human Icmt (Homo sapiens, UniProt O60725); test: Icmt assay: [3H]methyl incorporation from [3H]AdoMet into BFC; type: biochemical
T1 construct: recombinant baculovirus containing the entire open reading frame of the human Icmt cDNA; made in house; host or cells: Sf9 insect cells (baculovirus); membrane fraction used
T1 sequence (O60725 whole entry): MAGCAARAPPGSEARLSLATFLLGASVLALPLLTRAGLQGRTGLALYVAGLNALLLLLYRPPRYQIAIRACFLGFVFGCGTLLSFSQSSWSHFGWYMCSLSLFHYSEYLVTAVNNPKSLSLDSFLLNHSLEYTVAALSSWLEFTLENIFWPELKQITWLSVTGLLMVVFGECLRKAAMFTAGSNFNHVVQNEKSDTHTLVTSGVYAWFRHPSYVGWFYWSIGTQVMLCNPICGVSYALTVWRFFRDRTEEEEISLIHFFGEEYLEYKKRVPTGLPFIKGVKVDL

[2] = target: FTase (Homo sapiens, UniProt P49354+P49356); test: FTase inhibition (results not shown); type: biochemical; settings: concentrations up to 50 μM
[3] = target: SssI DNA methyltransferase (Spiroplasma monobiae, UniProt P15840); test: AdoMet-dependent DNA methyltransferase inhibition (results not shown); type: biochemical; settings: concentrations up to 50 μM
SssI DNA methyltransferase, sequence (P15840 whole entry): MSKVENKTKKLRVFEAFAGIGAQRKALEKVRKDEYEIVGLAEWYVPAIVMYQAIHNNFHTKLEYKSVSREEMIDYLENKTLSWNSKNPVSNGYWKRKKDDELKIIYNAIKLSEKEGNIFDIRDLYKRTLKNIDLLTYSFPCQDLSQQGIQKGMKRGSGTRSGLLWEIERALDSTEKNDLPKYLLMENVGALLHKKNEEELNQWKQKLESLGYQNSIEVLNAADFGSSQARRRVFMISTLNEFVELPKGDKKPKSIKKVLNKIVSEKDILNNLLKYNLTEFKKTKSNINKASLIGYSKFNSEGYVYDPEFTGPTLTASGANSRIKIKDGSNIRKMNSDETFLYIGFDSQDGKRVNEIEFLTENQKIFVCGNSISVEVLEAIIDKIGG

[4] = system: Icmt+/+ mouse embryonic fibroblasts; test: Cell growth determination, wild-type fibroblasts; type: cell-based; settings: 15, 20, 30 μM; 10% serum; six days
Procedure: (§1) FIGS. 2A-2C. […] Media and drug were replaced daily, and cell growth was monitored for six days. Data represent the mean and standard deviation of four replicate wells. (FIG. 2A) Icmt^+/+ cells; (FIG. 2B) Icmt^−/− cells; (C) Icmt^−/− cells stably transfected with a gene expressing human ICMT (Icmt^−/−/ICMT cells).
(§2) Cell growth assays were performed in a 96-well plate format. Briefly, 500 to 1000 cells were plated into 96-well plates. After the cells were allowed to attach for 24 h, media was removed and replaced with media containing either compound or vehicle. Media and drug were replaced every 24 h throughout the assay. Cell determinations were made at the times indicated in the respective figure by adding 19 μl of CellTiter 96 AqueousOne solution to each well followed by incubation of the plates in the dark at 37° C. for two hr after which the absorbance at 490 nm was read. Background absorbance from blank wells containing only media with compound or vehicle was subtracted from each test well. Typically, 3-6 replicate wells were employed for each point in each assay.

[5] = system: Icmt−/− mouse embryonic fibroblasts; test: Cell growth determination, Icmt-deficient fibroblasts; type: cell-based; settings: 15, 20, 30 μM; 10% serum; six days
Procedure: as §1, §2

[6] = system: Icmt−/−/ICMT cells; test: Cell growth determination, Icmt−/− cells expressing human ICMT; type: cell-based, mouse; settings: 15, 20, 30 μM; 10% serum; six days
Procedure: as §1, §2

[7] = system: p42/44 MAPK phosphorylation in DKOB8 colon cancer cells; test: Phosphoprotein analysis: EGF-stimulated p42/44 MAPK; type: cell-based; settings: 1 μM, three days, 1% serum, EGF 10 min
Procedure: FIGS. 3A and 3B. Impact of cysmethynil treatment on Ras localization and signaling. FIG. 3A. Mislocalization of GFP Ras in cysmethynil treated cells. […] Live cells were imaged on a spinning disk confocal microscope. FIG. 3B. Impact of cysmethynil treatment on EGF-stimulated protein phosphorylation. […] Where indicated, cells were treated with EGF for the final 10 min prior to harvesting. Cell lysates containing equal amounts of protein were resolved on a 13% SDS-polyacrylamide gel and probed with antiphospho-Akt, antiphospho-p42/44 MAPK or anti-β-tubulin antibody as indicated. […] Half of the wells were then treated with EGF (10 ng/ml) and half with vehicle for 10 min. Cells were rinsed with PBS and harvested in SDS-PAGE loading buffer. Total cell lysates (30 μg protein) were resolved on 4-20% Tris-glycine polyacrylamide gels (Invitrogen). Proteins were transferred to nitrocellulose and probed with a mix of anti-phospho-Akt and anti-phospho-p42/44 MAPK antibodies, or with anti-tubulin or anti-phospho NFκB antibody (Cell Signaling Technology) as indicated. Visualization was performed with alkaline phosphatase (Promega, Madison, Wis.) as per the manufacturer's instructions.

[8] = system: DKOB8/GFP colon cancer cells; test: Soft agar growth assay, DKOB8/GFP; type: cell-based; settings: three weeks
Procedure: (§3) FIGS. 4A-4C. Overexpression of Icmt rescues EGF-stimulated MAPK activation and anchorage-independent growth in cysmethynil-treated cells. FIG. 4A. Creation of cell lines stably overexpressing Icmt. DKOB8 cells were engineered to stably express either GFP alone or a GFP-Icmt fusion protein. Membrane fractions from GFP and GFP-ICMT expressing lines were assayed for Icmt activity using the BFC assay. FIG. 4B. Overexpression of Icmt restores EGF-stimulated MAPK activation in cysmethynil-treated cells. […] Where indicated, cells were treated with EGF for the final 10 min prior to harvesting. Cell lysates containing equal amounts of protein were resolved on a 13% SDS-polyacrylamide gel and probed with antiphospho-p42/44 MAPK or, as a control, antiphospho NFκB antibody as indicated. FIG. 4C. […] After 3 weeks of growth, colonies were stained with MTT and imaged. Soft agar culture media was prepared with 10% FBS in 1× minimum essential medium (MEM) alpha. […] Cells were harvested by trypsinization at ˜80% confluence, mixed into top agar (10,000 cells/plate; 0.3% noble agar in soft agar culture media) and poured onto prepared plates. […] For each condition, triplicate samples (each consisting of three plates) were prepared. […]

[9] = system: DKOB8/GFP-Icmt colon cancer cells; test: Soft agar growth assay, DKOB8/GFP-Icmt; type: cell-based; settings: 20 μM, three weeks; elevated Icmt activity
Procedure: as §3

[10] = system: RhoA in MDA-MB-231 breast cancer cells; test: Immunoblot of steady-state Rho level; type: cell-based; settings: 20 μM, 6 day treatment
Procedure: (§4) The impact of Icmt inhibition on function of the geranylgeranylated GTPases Rho and Rac in cells has been examined. This study was carried out in MD-MBA-231 breast cancer cells. Tumorigenesis and metastatic behavior of these cells is dependent on high levels of Rho GTPases in particular. […] Cells were harvested and lysates containing equal amounts of protein were resolved by SDS-PAGE and subjected to immunoblot analysis with specific antibodies to RhoA (FIG. 7A), or Rac1 (FIG. 7B). As a control, immunoblot analysis for α-tubulin was carried out on all samples.

[11] = system: Rac1 in MDA-MB-231 breast cancer cells; test: Immunoblot of steady-state Rac level; type: cell-based; settings: 20 μM, 6 day treatment
Procedure: as §4

CCCCCCCCn1cc(CC(N)=O)c2cc(-c3cccc(C)c3)ccc21 [cysmethynil, 2-[5-(3-methylphenyl)-1-octyl-1H-indol-3-yl]acetamide]
IC50 ([1]; BFC substrate, substrates and inhibitor premixed, reaction initiated by addition of enzyme, read-out: IC50 for Icmt inhibition): 2.4 µM
IC50 ([1]; Table 1, R1 substituent x scaffold matrix, read-out: IC50): 2.1 ± 0.9 µM
IC50 ([1]; Table 3, pre-incubation with Icmt for 30 min at 37° C., read-out: IC50 PI (converted)): 0.29 µM
IC50 ([1]; Table 3, without pre-incubation of the enzyme with the compound, read-out: IC50 No PI): 2.1 ± 0.9 µM
IC50 ([1]; enzyme premixed with inhibitor and AdoMet for 15 min prior to initiation with BFC, read-out: IC50 for Icmt inhibition): < 0.2 µM
inhibition of FTase [2]: did not inhibit
inhibition of SssI DNA methyltransferase [3]: nor did it inhibit
cell growth [4]: dose-dependent inhibition of growth
cell growth [5]: largely unaffected
cell growth [6]: regained sensitivity
EGF-induced increase in MAPK [7]: almost completely blocked
ability of cells to form colonies in soft agar ([8]; 20 μM): dramatically reducing the ability of cells to form colonies
ability to grow in soft agar ([8]; 10 or 20 μM): significantly impaired
ability of cells to form colonies in soft agar [9]: rescue the ability of the cells to form colonies
Rho levels [10]: almost undetectable
Rac levels reduced [11]: > 80%
